Columns and labels:
[1] = tested on: cancers that are resistant to hormone deprivation; conditions: docetaxel in combination with estramustine or prednisone; cited from earlier work
[2] = tested on: castration resistant metastatic prostate cancer; experiment: Randomized clinical study of cabazitaxel vs mitoxantrone, each with prednisone or prednisolone: efficacy; type: in vivo, human; conditions: intention-to-treat
Description: (§1) A clinical study was performed wherein patients received either treatment with cabazitaxel or the reference treatment based on mitoxantrone each combined with prednisone or prednisolone.
(§2) More specifically, patients over 18 years of age with metastatic castration resistant metastatic prostate cancer either measurable by RECIST criteria or non-measurable disease with rising PSA levels or appearance of new lesions, ECOG (Eastern Cooperative Oncology Group) performance stage 0-2, and adequate organ function (patients had to have neutrophils >1,500 cells/mm^3, platelets >100,000 cells/mm^3, hemoglobin >10 g/dL, creatinine <1.5×upper limit of normal (ULN), total bilirubin <1×ULN, AST <1.5×ULN, and ALT <1.5×ULN) who had had prior hormone therapy, chemotherapy, and radiotherapy, but had progressive during or after docetaxel treatment (cumulative dose ≥225 mg/m^2) were randomized to 10 mg/day of prednisone with either mitoxantrone 12 mg/m^2 or cabazitaxel 25 mg/m^2, both administered every 3 weeks.
(§3) Patients with a history of congestive heart failure, or myocardial infarction within the last 6 months, or patients with uncontrolled cardiac arrhythmias, angina pectoris, and/or hypertension were not included in the study.
(§4) 720 patients were planned to be included in the clinical study: 360 in each cabazitaxel+prednisone and mitoxantrone+prednisone group. Seven hundred and fifty-five patients (755) (median age 68; 84% white) were actually enrolled, 378 in the cabazitaxel and prednisone/prednisolone group and 377 in the mitoxantrone and prednisone/prednisolone group. The maximal number of treatment cycles was 10 for cabazitaxel and 10 for mitoxantrone. The median number of treatment cycles was 6 for cabazitaxel and 4 for mitoxantrone. The median prior dose of docetaxel treatment was 576 mg/m^2 for the cabazitaxel group and 529 mg/m^2 for the mitoxantrone group. Median follow-up was 12.8 months.
The measurements of the results are performed via the same tests as at inclusion. MRI and spiral computed tomographic (CT) scans are preferably used.
The results are evaluated according to the following criteria (cf RECIST guideline): • overall survival (OS): the time from inclusion to the study to the date of death complete response (CR): disappearance of the lesions • partial response (PR): at least 30% reduction of the largest diameter of the lesion progression (PD): at least 20% increase in the sum of the largest diameter of the lesion or appearance of one or more new lesions • stable disease (SD): reduction of the tumour insufficient to be included in PR and increase of the tumour insufficient to be included in PD.
The confirmations of the measurements are made at least 4 weeks after the response criterion has been established for the first time.
The progression-free survival (PFS) is the time from inclusion in the study and the date of progression or death when the progression is either an increase of the PSA, or of the tumour, or of the pain.

[3] = Same clinical study: adverse reactions, hematologic abnormalities, treatment discontinuation, delays and dose reductions; type: in vivo, human
Description: as §1, §2, §3, §4

[4] = human, in vivo, listed as Mitoxantrone
[5] = percent of patients, laboratory values, cabazitaxel: n = 369, mitoxantrone: n = 370

## CC(=O)O[C@@]12CO[C@@H]1C[C@H](O)[C@@]1(C)C(=O)[C@H](O)C3=C(C)[C@@H](OC(=O)[C@H](O)[C@@H](NC(=O)OC(C)(C)C)c4ccccc4)C[C@@](O)([C@@H](OC(=O)c4ccccc4)[C@H]21)C3(C)C [docetaxel]
[1]
  improvement of survival: 2.4 months

## O=C1c2c(O)ccc(O)c2C(=O)c2c(NCCNCCO)ccc(NCCNCCO)c21 [mitoxantrone, reference compound]
[2]
  Discontinuation of study treatment for disease progression, (%): (70.8) %
[2]; N = 377 mitoxantrone, N = 378 cabazitaxel
  Discontinuation of study treatment for disease progression, no.: 267
[2]; 25 mg/m^2 cabazitaxel or 12 mg/m^2 mitoxantrone every 3 weeks with prednisone
  Overall survival Median: 12.7 months
[2]; earliest progression in tumor, PSA or pain
  PFS Median: 1.4 months
[3]; Example 1
  Rates of febrile neutropenia: 1.3%
[3]; human, in vivo
  Dose reductions, cycles (%): 5.1%
  Dose reductions, no. of cycles: 88
  Treatment delays >9 days, cycles (%): 1.6%
  Treatment delays >9 days, no. of cycles: 28
  Treatment delays ≤9 days, cycles (%): 6.3%
  Treatment delays ≤9 days, no. of cycles: 110
[3]; [4]
  Dose reductions, cycles (%): (5.1) %
  Treatment delays >9 days, cycles (%): (1.6) %
  Treatment delays ≤9 days, cycles (%): (6.3) %
[3]; intention-to-treat
  Discontinuation of study treatment for adverse event, (%): (8.5) %
[3]; intention-to-treat, N = 377 mitoxantrone, N = 378 cabazitaxel
  Discontinuation of study treatment for adverse event, no.: 32
[3]; percent of patients of n = 371
  Abdominal Pain Grade 1-4, (%): (6%)
  Alopecia Grade 1-4, (%): (5%)
  Anorexia Grade 1-4, (%): (11%)
  Anorexia Grade 3-4, (%): (<1%)
  Arrhythmia Grade 1-4, (%): (2%)
  Arrhythmia Grade 3-4, (%): (<1%)
  Arthralgia Grade 1-4, (%): (8%)
  Arthralgia Grade 3-4, (%): (1%)
  Asthenia Grade 1-4, (%): (12%)
  Asthenia Grade 3-4, (%): (2%)
  Back Pain Grade 1-4, (%): (12%)
  Back Pain Grade 3-4, (%): (3%)
  Bone Pain Grade 1-4, (%): (5%)
  Bone Pain Grade 3-4, (%): (2%)
  Constipation Grade 1-4, (%): (15%)
  Constipation Grade 3-4, (%): (<1%)
  Cough Grade 1-4, (%): (6%)
  Dehydration Grade 1-4, (%): (3%)
  Dehydration Grade 3-4, (%): (<1%)
  Diarrhea Grade 1-4, (%): (11%)
  Diarrhea Grade 3-4, (%): (<1%)
  Dizziness Grade 1-4, (%): (6%)
  Dizziness Grade 3-4, (%): (<1%)
  Dysgeusia Grade 1-4, (%): (4%)
  Dyspepsia Grade 1-4, (%): (2%)
  Dyspnea Grade 1-4, (%): (4%)
  Dyspnea Grade 3-4, (%): (<1%)
  Dysuria Grade 1-4, (%): (1%)
  Fatigue Grade 1-4, (%): (27%)
  Fatigue Grade 3-4, (%): (3%)
  Febrile Neutropenia Grade 1-4, (%): (1%)
  Febrile Neutropenia Grade 3-4, (%): (1%)
  Headache Grade 1-4, (%): (5%)
  Hematuria Grade 1-4, (%): (4%)
  Hematuria Grade 3-4, (%): (<1%)
  Hypotension Grade 1-4, (%): (2%)
  Hypotension Grade 3-4, (%): (<1%)
  Mucosal Inflammation Grade 1-4, (%): (3%)
  Mucosal Inflammation Grade 3-4, (%): (<1%)
  Muscle Spasms Grade 1-4, (%): (3%)
  Musculoskeletal Pain Grade 1-4, (%): (5%)
  Musculoskeletal Pain Grade 3-4, (%): (<1%)
  Nausea Grade 1-4, (%): (23%)
  Nausea Grade 3-4, (%): (<1%)
  Pain Grade 1-4, (%): (5%)
  Pain Grade 3-4, (%): (2%)
  Pain in Extremity Grade 1-4, (%): (7%)
  Pain in Extremity Grade 3-4, (%): (1%)
  Peripheral Edema Grade 1-4, (%): (9%)
  Peripheral Edema Grade 3-4, (%): (<1%)
  Peripheral Neuropathy Grade 1-4, (%): (3.2%)
  Peripheral Neuropathy Grade 3-4, (%): (<1%)
  Pneumonia Grade 1-4, (%): (1%)
  Pneumonia Grade 3-4, (%): (<1%)
  Pyrexia Grade 1-4, (%): (6%)
  Pyrexia Grade 3-4, (%): (<1%)
  Urinary Tract Infection Grade 1-4, (%): (3%)
  Urinary Tract Infection Grade 3-4, (%): (1%)
  Vomiting Grade 1-4, (%): (10%)
  Weight Decreased Grade 1-4, (%): (8%)
  Weight Decreased Grade 3-4, (%): (<1%)
[3]; [5]
  Anemia Grade 1-4, (%): (82%)
  Anemia Grade 3-4, (%): (5%)
  Leukopenia Grade 1-4, (%): (93%)
  Leukopenia Grade 3-4, (%): (42%)
  Neutropenia Grade 1-4, (%): (87%)
  Neutropenia Grade 3-4, (%): 58.0%
  Thrombocytopenia Grade 1-4, (%): (43%)
  Thrombocytopenia Grade 3-4, (%): (2%)
[3]; percent of patients, laboratory values, cabazitaxel: n = 369, mitoxantrone: n = 370, listed as Mitoxantrone
  Neutropenia Grade 3-4, (%): (58%)

Source: US12453712B2, “Antitumoral use of cabazitaxel” (Sanofi Mature IP, priority 2009, dated 2025)
